In patent publication US11312940B2, “Progenitor cells and methods for preparing and using the same” (University of Louisville Research Foundation, Inc., priority 2015, dated 2022):

Assays:
[1] = test system: Sca-1+/Lin-/CD45- cells (VSELs); assay: In vivo BrdU incorporation into BM VSELs; set-up: species or system mouse; conditions: for BrdU incorporation response of Sca-1+/Lin-/CD45- cells (ranking): 10-day administration
Method: (§1) Hormone treatment was performed for 10 days.
(§2) All mAbs were added at saturating concentrations, and the cells were incubated for 30 minutes on ice, washed twice, and then resuspended for sorting in cell-sorting medium containing 1× Hank's Balanced Salt Solution without phenol red (GIBCO™, a division of Thermo Fisher Scientific Inc., Waltham, Mass.), 2% heat-inactivated fetal calf serum (GIBCO™), 10 mM HEPES buffer (GIBCO™), and 30 U/mL gentamicin (GIBCO™) at a concentration of 5×10^6 cells/mL. Sca-1^+/Lin^−/CD45^− cells (VSELs) and Sca-1^+/Lin^−/CD45^+ cells (HSCs) were isolated according to the gating and sorting strategy described in Zuba-Surma & Ratajczak, 2010 and Suszynska et al, 2014b. Proliferation events in BM-derived VSEL and HSC populations were examined by BrdU incorporation followed by flow cytometry.
(§3) Adult C57BL/6 mice (4-8 weeks old; Jackson Laboratory) were intraperitoneally (i.p.) were injected daily with 1 mg of BrdU solution to evaluate whether SexHs affect proliferation of stem cells, and the final injection of BrdU was performed 1 hour before sacrificing the animals (see Grymula et al, 2014). […] Samples were analyzed with a Navios flow cytometer (Beckman Coulter).

[2] = test system: Sca-1+/Lin-/CD45+ cells (HSPCs); assay: In vivo BrdU incorporation into BM HSPCs; set-up: species or system mouse
Method: as §1, §2, §3

[3] = test system: BM HSPCs; assay: Total number of BM HSPCs by FACS after SexH administration; assay type: in vivo, mouse; conditions: male and female mice, 10-day administration
Method: as §1, §2

[4] = test system: sublethally irradiated mice; assay: Recovery of PB counts in sublethally irradiated mice; assay type: in vivo, mouse; conditions: 650 cGy, injections for 10 days
Method: Fifty microliters of PB was taken from the retro-orbital plexus of the mice and collected into microvette EDTA-coated tubes (Sarstedt AG & Co., Nümbrecht, Germany). Samples were run within 2 hours of collection on a HEMAVET® 950 hematology analyzer (Drew Scientific Inc., Oxford, Conn.) as described in Borkowska et al., 2014.
Blood was collected on days 0, 3, 7, 14, 21, and 28, and white blood cell (WBC), platelet, red blood cells (RBC), and hematocrit were measured on a HEMAVET® instrument (HV950FS; Drew Scientific Inc.) as described in Borkowska et al, 2014. Experiments were performed twice (each time, n=5).

[5] = test system: BM VSELs; assay: Total number of BM VSELs by FACS after SexH administration; assay type: in vivo, mouse; conditions: 10-day administration; for increase in total number of VSELs/10^6 BMMNCs (ranking): female mice; for increase in total number of VSELs/10^6 BMMNCs: male BM
Method: as §1, §2

Row | Molecule | BrdU incorporation response of Sca-1+/Lin-/CD45- cells (ranking) ([1]; female and male cells) | increase in percentage of BrdU+ Sca-1+/Lin-/CD45+ cells (ranking) ([2]; 10-day administration) | increase in BM HSPCs/10^6 BMMNCs (ranking) [3] | leucocyte counts [4] | increase in total number of VSELs/10^6 BMMNCs (ranking) [5] | increase in total number of VSELs/10^6 BMMNCs [5] | BrdU incorporation in Sca-1+/Lin-/CD45- VSELs ([1]; ovariectomized female mice) | BrdU incorporation into Sca1+/Lin-/CD45+ HSPCs ([2]; ovariectomized female mice) | BrdU incorporation response of Sca-1+/Lin-/CD45- cells (ranking) ([1]; female cells)
1 | C#C[C@]1(O)CC[C@H]2[C@@H]3CCC4=Cc5oncc5C[C@]4(C)[C@H]3CC[C@@]21C [danazol] | highest response | highest increases | highest stimulatory effect | statistically significant increase | most effective | about 2.5 fold | – | – | –
2 | C[C@]12CC[C@@H]3c4ccc(O)cc4CC[C@H]3[C@@H]1CC[C@@H]2O [estrogen, estradiol] | – | – | – | – | – | about 2.5 fold | – | – | –
3 | CC(=O)[C@H]1CC[C@H]2[C@@H]3CCC4=CC(=O)CC[C@]4(C)[C@H]3CC[C@]12C [progesterone] | – | – | – | – | – | – | enhanced BrdU incorporation | small increase in BrdU incorporation | –
4 | prolactin (protein, UniProt P01236 29-227, looked up, pituitary sex hormone, purchased from ProSpec) Prolactin: LPICPGGAARCQVTLRDLFDRAVVLSHYIHNLSSEMFSEFDKRYTHGRGFITKAINSCHTSSLATPEDKEQAQQMNQKDFLSLIVSILRSWNEPLYHLVTEVRGMQEAPEAILSKAVEIEEQTKRLLEGMELIVSQVHPETKENEIYPVWSGLPSLQMADEESRLSAYYNLLHCLRRDSHKIDNYLKLLKCRIIHNNNC | – | – | – | statistically significant increase | most effective | about 2.5 fold | – | – | highest response
